Measurements from patent US6410054B1, “Immediate release eplerenone compositions” (G. D. Searle & Co., priority 1998, dated 2002).

Columns and labels:
[1] = Single dose study: safety; type: in vivo; settings: single 10-1000 mg oral doses, healthy male humans
Protocol: Antialdosterone activity was determined based on urine levels of sodium and potassium following repeated administration of fludrocortisone. Safety was determined on the basis of laboratory tests, vital signs, and the occurrence and types of adverse events.

renin and aldosterone = test: Treatment of hypertension study: plasma renin and serum aldosterone; type: in vivo, humans
Protocol: The safety and efficacy of a range of doses of eplerenone in the treatment of hypertension relative to placebo were evaluated in a multi-center, randomized, double-blind, placebo-lead-in, parallel group study. […] Four hundred and seventeen patients were randomized to one of eight treatments: (i) placebo BID; […] (iv) eplerenone 400 mg QD; (v) eplerenone 25 mg BID; […] The primary efficacy variable was the change in cuff diastolic blood pressure (ADBP; sitting) measured at trough plasma levels after eight weeks of double blind treatment. The secondary variables measured were the change in trough cuff systolic blood pressure (ΔSBP; sitting), change in 24 hour mean diastolic blood pressure (ΔDBP), and change in 24 hour mean systolic blood pressure (ΔSBP). […] Changes in plasma renin and serum aldosterone after eight weeks of dosing were also analyzed as secondary measures of efficacy.

[2] = Treatment of hypertension study: safety; type: in vivo, humans
Protocol: The safety and efficacy of a range of doses of eplerenone in the treatment of hypertension relative to placebo were evaluated in a multi-center, randomized, double-blind, placebo-lead-in, parallel group study. […] The primary efficacy variable was the change in cuff diastolic blood pressure (ADBP; sitting) measured at trough plasma levels after eight weeks of double blind treatment. The secondary variables measured were the change in trough cuff systolic blood pressure (ΔSBP; sitting), change in 24 hour mean diastolic blood pressure (ΔDBP), and change in 24 hour mean systolic blood pressure (ΔSBP). The primary and secondary efficacy variables were analyzed to compare BID versus QD dosing regimens for each eplerenone dose group, and both eplerenone and spironolactone versus placebo. Changes in plasma renin and serum aldosterone after eight weeks of dosing were also analyzed as secondary measures of efficacy.
All eplerenone doses lowered cuff diastolic and systolic pressures from baseline after eight weeks of treatment compared to placebo. […] There was, however, a trend toward greater reduction with the BID dosing regimen. […] Over the course of the study, the mean change in heart rate from baseline was minimal in all treatment groups, with the largest mean increase and decrease in heart rate being +2 beats/minute and −1.8 beats/minute, respectively. […] Safety was assessed by comparing the incidence of adverse events, withdrawals, and the results of urinalysis, hematology and biochemistry laboratory tests across the treatment group to the placebo group.

[3] = all eplerenone treatment groups

In the case of `COC(=O)C1CC2=CC(=O)CCC2(C)C23OC2CC2(C)C(CC[C@@]24CCC(=O)O4)C13` (stereo partly drawn) [eplerenone, methyl hydrogen 9,11α-epoxy-17α-hydroxy-3-oxopregn-4-ene-7α,21-dicarboxylate, γ-lactone], the “changes in physical examinations, vital signs or clinical laboratory results” value [1] is reported as “no clinically significant changes”, the “severity of adverse events” value [1] is reported as “mild” and the “Plasma Renin Active Mean Change From Baseline” value (renin and aldosterone; 25 mg BID) is reported as 1.2 mU/L. For the same compound, the “Serum Aldosterone Mean Change From Baseline” value (renin and aldosterone; 25 mg BID) was 7.3 ng/dL, the “Plasma Renin Active Mean Change From Baseline” value (renin and aldosterone; 50 mg BID) was 15.0 mU/L and the “Serum Aldosterone Mean Change From Baseline” value (renin and aldosterone; 50 mg BID) was 10.0 ng/dL. The “Plasma Renin Active Mean Change From Baseline” value (renin and aldosterone; 50 mg QD) was 2.9 mU/L, the “Serum Aldosterone Mean Change From Baseline” value (renin and aldosterone; 50 mg QD) was 6.0 ng/dL and the “Plasma Renin Active Mean Change From Baseline” value (renin and aldosterone; 100 mg QD) was 13.9 mU/L. The “Serum Aldosterone Mean Change From Baseline” value (renin and aldosterone; 100 mg QD) was 10.5 ng/dL, the “Plasma Renin Active Mean Change From Baseline” value (renin and aldosterone; 200 mg BID) was 32.0 mU/L and the “Serum Aldosterone Mean Change From Baseline” value (renin and aldosterone; 200 mg BID) was 32.8 ng/dL. The “Plasma Renin Active Mean Change From Baseline” value (renin and aldosterone; 400 mg QD) was 21.2 mU/L, the “Serum Aldosterone Mean Change From Baseline” value (renin and aldosterone; 400 mg QD) was 19.2 ng/dL and the “aldosterone compared to placebo” value (renin and aldosterone; eight weeks of dosing) was “increases”. For the same compound, the “total and active renin levels” value (renin and aldosterone; eight weeks of dosing) was “increases”, the “adverse side effects at the highest dose administered” value ([2]; 1000 mg) was “No adverse side effects” and the potassium [2, 3] was “small but consistent increases”. The sodium [2, 3] was “decreases”, the tolerability ([2]; each eplerenone dosing regimen) was “well tolerated” and the “BUN, uric acid levels compared to placebo” value ([2]; eplerenone treatment groups) was “increases”. For the same compound, the “urine pH compared to placebo” value ([2]; eplerenone treatment groups) was “decreases”.
